Data on five compounds can be found in patent US20220144850A1, “INDOLO HEPTAMYL OXIME ANALOGUE AS PARP INHIBITOR” (Chia Tai Tianqing Pharmaceutical Group Co., Ltd., priority 2019, published 2022).

The structures appear in SMILES notation. Read-outs that look alike come from different tables or passages of the source.

Data set [1] in a line: Metabolic stability in liver microsomes, mouse. It is filed as in vitro ADME. The settings on record: Mouse liver microsomes 0.5 mg/mL, 1 μM compound, NADPH, 37° C. As to the method:
(§1) Experimental Example 7. Metabolic Stability in Liver Microsomes
(§2) Experimental objective: to test the metabolic stability of test compounds in liver microsomes of three species.
(§3) Experimental method: 1 μM test compound and a microsome (0.5 mg/mL) were incubated at 37° C. in the presence of an NADPH regeneration system; positive controls were testosterone (3A4 substrate), propylamine propiophenone (2D6 substrate) and diclofenac (2C9 substrate), and also at 37° C., a positive control was incubated with a microsome (0.5 mg/mL) in the presence of an NADPH regenerating system; the reaction was stopped by direct mixing of the sample with cold acetonitrile containing an internal standard at various time points (0, 5, 10, 20, 30 and 60 min); the compound and microsome were incubated for 60 min in the absence of an NADPH regenerating system; one parallel (n=1) was set at each time point; the samples were analyzed by LC/MS/MS; the concentration of the compound was characterized by the ratio of the analyte peak area to the internal standard peak area.
(Microsomes from liver hold many membrane-bound enzymes, among them those of drug oxidation.)

Data set [2] can be described thus: Metabolic stability in liver microsomes, human. Type of data set: in vitro ADME. The settings on record: Human liver microsomes 0.5 mg/mL, 1 μM compound, NADPH, 37° C. Here is the method: as §1, §2, §3
The test system of data set [3] is BRCA-wild type MDA-MB-231 cells. The data set can be described thus: Anti-proliferation experiment on MDA-MB-231 CTG cells. Type of data set: cell-based. The settings on record: Homo sapiens, MDA-MB-231, 72 h; 3 days incubation, CellTiter-Glo. Here is the method:
Experimental Example 3: Anti-Proliferation Experiment on MDA-MB-231 CTG Cells
Experimental materials: test compounds; R DMEM medium; fetal bovine serum; penicillin/streptomycin antibiotic; MDA-MB-231 cell line; Envision multi-label analyzer.
MDA-MB-231 cells were seeded in a white 96-well plate by adding 80 μL of cell suspension (containing 5000 MDA-MB-231 cells) to each well. The cell plate was incubated in a CO2 incubator overnight.
Eight concentration points were set for each compound, test compounds were serially 3-fold diluted to the 8th concentration with a multichannel pipette, i.e. from 2 mM to 920 nM, and a duplicate well experiment was performed. 78 μL of medium was added to a intermediate plate, 2 μL of each of serially diluted compounds was transferred to corresponding wells of the intermediate plate, and after mixing, the mixture was transferred to the cell plate at 20 μL per well. The cell plate was incubated in a CO2 incubator for 3 days. Another cell plate was provided for reading signal values on the day of compound addition and these signal values were used as Max values in data analysis. Promega CellTiter-Glo was added to this cell plate at 25 μL per well and the luminescence signals were stabilized by incubation for 10 min at room temperature. Readings were taken using a PerkinElmer Envision multi-marker analyzer.
Promega CellTiter-Glo was added to the cell plate at 25 μL per well and the luminescence signals were stabilized by incubation for 10 min at room temperature. Readings were taken using a PerkinElmer Envision multi-marker analyzer.
Data analysis: the original data was converted to inhibition using the equation (sample−Min)/(Max−Min)×100%, and the IC50 value was then curve fitted using four parameters (obtained from the “log(inhibitor) vs. response-variable slope” model in GraphPad Prism). Table 1 provides the inhibitory activity of the compounds disclosed herein against MDA-MB-231 cell proliferation.

The nature of data set [4]: Plasma protein binding rate, human plasma (equilibrium dialysis). It is filed as in vitro ADME. The settings on record: dialysis 4 h at 37° C. As to the method: Experimental Example 5: Study on Plasma Protein Binding Rate
The protein binding rates of the compounds disclosed herein in plasma of human, CD-1 mice and SD rats were determined. 796 μL of blank plasma was taken from human, CD-1 mice and SD rats, and added with 4 μL of test compound working solution (400. μM) or warfarin working solution (400 μM) to achieve a final concentration of 2 μM of both the test compound and the warfarin in the plasma sample. The samples were mixed well. The final concentration of organic phase DMSO was 0.5%; 50 μL of test compound and warfarin plasma sample was pipetted into a sample receiving plate (three parallels), and a corresponding volume of blank plasma or buffer was immediately added such that the final volume of each sample well was 100 μL. The volume ratio of plasma to dialysis buffer was 1:1, and 400 μL of stop solution was added to these samples, which were used as TO samples for determination of recovery rate and stability. The TO samples were stored at 2-8° C. for subsequent treatment with other dialyzed samples; 150 μL of the test compound and warfarin plasma sample was added to a drug delivery end of each dialysis well, and 150 μL of blank dialysis buffer was added to a corresponding receiving end of the dialysis well. The dialysis plate was then sealed with a gas permeable membrane and placed in a humid, 5% CO2 incubator and incubated at 37° C. for 4 h while shaking at about 100 rpm. After the dialysis was completed, 50 μL of the dialyzed buffer sample and dialyzed plasma sample were pipetted to a new sample receiving plate. A corresponding volume of corresponding blank plasma or buffer was added to the samples such that the final volume of each sample well was 100 μL, and the volume ratio of plasma to dialysis buffer was 1:1. All samples were subjected to LC/MS analysis after protein precipitation, and the protein binding rates and the recovery rates were calculated by the following formulas: protein unbinding rate (%)=100×drug concentration passing through dialysis membrane/drug concentration not passing through dialysate; protein binding rate (%)=100−protein unbinding rate (%); recovery rate (%)=100×(drug concentration passing through dialysis membrane+drug concentration not passing through dialysate)/total drug concentration before dialysis.

Data set [5] is described as follows: Single-dose pharmacokinetic study in mice. It is filed as in vivo. The following applies: male C57BL/6 mice; for Maximum concentration / bioavailability / clearance / half-life / Vd: IV: 1 mg/kg PO: 5 mg/kg; for bioavailability / clearance / half-life / Vd / AUC(0-t): mouse, plasma; for Vd: read-out: Apparent volume of distribution. An excerpt:
Experimental Example 8: Single-Dose Pharmacokinetic Study in Mice
Experimental objective: to evaluate the pharmacokinetic behavior by using male C57BL/6 mice as test animals and determining the drug concentrations of the compounds in the plasma, liver and cerebrospinal fluid after single-dose administration.
Experimental method: healthy adult male C57BL/6 mice were selected for intragastric administration. A candidate compound was mixed with an appropriate amount of 10% DMSO/90% (20% hydroxypropyl-β-cyclodextrin), vortexed and sonicated to prepare a 0.5 mg/mL clear solution for later use. After the mice were administered intravenously at 1 mg/kg and orally at 5 mg/kg, whole blood was collected at certain time points, and plasma was separated, and liver and cerebrospinal fluid were collected. After pretreatment of the samples, the drug concentration was measured by LC-MS/MS, and pharmacokinetic parameters were calculated using Phoenix WinNonlin software.

Data set [6] can be described thus: Metabolic stability in liver microsomes, rat. Type of data set: in vitro ADME. The settings on record: Rat liver microsomes 0.5 mg/mL, 1 μM compound, NADPH, 37° C. Here is the method:
as §1, §2, §3

The mark [7] stands for this setting: intravenous 1 mg/kg, read-out: AUC0-last (intravenous injection).
The mark [8] stands for this setting: oral 5 mg/kg, read-out: AUC0-last (oral).

For orientation: IC50 means the concentration at which inhibition is half-maximal. A higher IC50 goes with weaker potency in that assay. A word on the fraction unbound: it is the share of the substance not bound to proteins or other matrix. A high value points to weak binding. In general, bioavailability refers to the share of a dose that reaches the circulation, judged against a reference dose that is usually intravenous. As a reminder, the half-life is how long it takes for the measured level to halve. High values mean slow loss, low ones fast loss. For the compound `CC1(c2ccc(-c3[nH]c4cc(F)cc5c4c3CONC5=O)cc2)CCCN1` (stereo not shown) [Example 25_A], the “Residual content after 60 min of incubation” value (“Residual content after 60 min” below) in data set [1] turned out to be 40.7%. The “Residual content after 60 min” value in data set [2] is given as 35.9%. Further, the IC50 in data set [3] was above 10 µM. The compound further showed a fraction unbound at 4 h, 2 μM in data set [4] of 0.149. For the same compound, in data set [5], the Maximum concentration is on record as 240 nM, the bioavailability turned out to be 24.8%, the clearance came to 41 mL/min/kg and the half-life is 3.02 h. Also, in data set [5], the Vd was determined as 9.44 L/kg. Also, in data set [5] (setting [7]), the AUC(0-t) turned out to be 0.958 µM·h. The AUC(0-t) in data set [5] (setting [8]) was determined as 1.19 µM·h. For the same compound, the “Residual content after 60 min” value in data set [6] is given as 31.8%.
`O=C1NOCc2c(-c3ccc(C4CCCN4)cc3)[nH]c3cc(F)cc1c23` (single isomer, unassigned) [Example 24_A]: the “Residual content after 60 min” value in data set [1] turned out to be 52.3%. Besides, the “Residual content after 60 min” value in data set [2] is reported as 60.4%. Moreover, the concentration for half-maximal inhibition (IC50) in data set [3] was above 10 µM. In data set [4], the fraction unbound at 4 h, 2 μM was 0.073. Further, in data set [5], the Maximum concentration was determined as 433 nM, the bioavailability stood at 21.2%, the clearance is 34.9 mL/min/kg and the half-life was 2.03 h. Further, in data set [5], the Vd was 4.21 L/kg. For the same compound, in data set [5] (setting [7]), the AUC(0-t) stood at 1.3 µM·h. The AUC(0-t) in data set [5] (setting [8]) turned out to be 1.38 µM·h. Besides, the “Residual content after 60 min” value in data set [6] was 60.6%.
`CC1(c2ccc(-c3[nH]c4cccc5c4c3CONC5=O)cc2)CCCN1` (stereo not shown) [Example 6_A]: the “Residual content after 60 min” value in data set [1] was determined as 45.6%; in data set [2], 53.7%; in data set [6], 55.4%. This compound also gave a half-inhibitory concentration (IC50) in data set [3] above 10 µM. Besides, the free fraction (fraction unbound) at 4 h, 2 μM in data set [4] is 0.181.
With `O=C1NOCc2c(-c3ccc(C4CCCN4)c(F)c3)[nH]c3cccc1c23` (stereo not shown) [Example 11_A], the “Residual content after 60 min” value in data set [1] is 57.1%; in data set [2], 73.8%; in data set [6] it was 58.1%. This compound also returned an IC50 in data set [3] above 10 µM. The compound further showed a fraction unbound at 4 h, 2 μM in data set [4] of 0.235.
For the compound `CC1(c2ccc(-c3[nH]c4cc(F)cc5c4c3CONC5=O)cc2F)CCCN1` (single isomer, unassigned) [Example 26_A], the “Residual content after 60 min” value in data set [1] is 57.7%. Besides, in data set [2], the “Residual content after 60 min” value stood at 29.6%. In data set [3], this compound gave an IC50 above 10 µM. Moreover, the fraction unbound at 4 h, 2 μM in data set [4] was 0.057. Moreover, in data set [5], the Maximum concentration is recorded as 285 nM, the bioavailability amounted to 37.9%, the clearance was 60.7 mL/min/kg and the half-life is 2.15 h. Besides, in data set [5], the Vd came to 8.22 L/kg. In addition, in data set [5] (setting [7]), the AUC(0-t) turned out to be 0.679 µM·h. In addition, the AUC(0-t) in data set [5] (setting [8]) is 1.29 µM·h. Besides, the “Residual content after 60 min” value in data set [6] is 34.5%.
